Consider two molecules from publication PMC2658647 (Annals of neurology, 2009).

One may read the pKi as the negative decadic logarithm of the Ki, by convention in mol/L.

One data set addresses iNOS (Mus musculus, UniProt P29477). The data set is described as follows: NOS inhibition, hemoglobin capture assay. As to conditions: read-out: Ki iNOS; apparent Ki; recombinant enzyme; 10 µM L-arginine. The data set is classed as biochemical.
A further data set has as its system blood pressure. As to conditions: cited from earlier work.

pKi: −log10 of the molar value.

As to `N=C(NCCC[C@H](N)C(=O)O)N[N+](=O)[O-]` [L-NNA, L-N^ω-Nitroarginine], the pKi at iNOS is 5.34.

With `COC(=O)[C@@H](N)CCCNC(=N)N[N+](=O)[O-]` [L-N^ω-nitroarginine methyl ester], in the data set on blood pressure, the “effect on blood pressure” value is on record as “sharp increases in blood pressure”.
